Consider four compounds from ChEMBL document CHEMBL5143597, “Design and synthesis of novel spirocyclic carboxylic acids as potent and orally bioavailable DGAT1 inhibitors and their biological evaluation” (Bioorg Med Chem Lett, 2022).

One data set has as its target T1, CYP1A2 (Homo sapiens, UniProt P05177).
T1 sequence (P05177 whole entry): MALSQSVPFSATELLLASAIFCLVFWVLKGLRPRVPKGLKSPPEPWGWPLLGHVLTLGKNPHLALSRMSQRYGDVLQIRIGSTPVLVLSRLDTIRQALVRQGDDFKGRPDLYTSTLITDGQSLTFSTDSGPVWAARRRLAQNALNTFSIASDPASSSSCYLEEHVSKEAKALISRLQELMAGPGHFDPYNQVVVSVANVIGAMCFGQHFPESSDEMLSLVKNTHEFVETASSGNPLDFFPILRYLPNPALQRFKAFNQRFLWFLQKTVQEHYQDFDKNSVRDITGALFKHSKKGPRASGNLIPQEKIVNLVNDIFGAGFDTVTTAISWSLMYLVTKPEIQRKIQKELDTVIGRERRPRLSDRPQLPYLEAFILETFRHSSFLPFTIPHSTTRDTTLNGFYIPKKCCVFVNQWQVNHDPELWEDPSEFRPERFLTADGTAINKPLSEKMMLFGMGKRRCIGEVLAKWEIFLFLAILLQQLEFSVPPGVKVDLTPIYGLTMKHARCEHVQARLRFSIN
Nature of the data set: Inhibition of recombinant human CYP1A2 at 25 uM by fluorescence plate reader analysis. It counts as ADME.

A further data set has as its target CYP3A4 (Homo sapiens, UniProt P08684). The data set is described as follows: Inhibition of recombinant human CYP3A4 at 25 uM by fluorescence plate reader analysis. It counts as ADME.
In a further data set the target is CYP2D6 (Homo sapiens, UniProt P10635). The data set is described as follows: Inhibition of recombinant human CYP2D6 at 25 uM by fluorescence plate reader analysis. It counts as ADME.
Data set [1] in a line: Solubility of compound in PBS at pH 2 incubated for 4 hrs under shaking condition by UV absorbance based analysis. The format is physicochemical.
Data set [2] is described as follows: Solubility of compound in PBS at pH 4 incubated for 4 hrs under shaking condition by UV absorbance based analysis. The format is physicochemical.
Data set [3] can be described thus: Solubility of compound in PBS at pH 7.4 incubated for 4 hrs under shaking condition by UV absorbance based analysis. The format is physicochemical.
A short description of data set [4]: Solubility of compound in PBS at pH 9 incubated for 4 hrs under shaking condition by UV absorbance based analysis. The format is physicochemical.
Data set [5] concerns the target T2, Diacylglycerol O-acyltransferase 1 (Homo sapiens, UniProt O75907).
T2 sequence (O75907 whole entry): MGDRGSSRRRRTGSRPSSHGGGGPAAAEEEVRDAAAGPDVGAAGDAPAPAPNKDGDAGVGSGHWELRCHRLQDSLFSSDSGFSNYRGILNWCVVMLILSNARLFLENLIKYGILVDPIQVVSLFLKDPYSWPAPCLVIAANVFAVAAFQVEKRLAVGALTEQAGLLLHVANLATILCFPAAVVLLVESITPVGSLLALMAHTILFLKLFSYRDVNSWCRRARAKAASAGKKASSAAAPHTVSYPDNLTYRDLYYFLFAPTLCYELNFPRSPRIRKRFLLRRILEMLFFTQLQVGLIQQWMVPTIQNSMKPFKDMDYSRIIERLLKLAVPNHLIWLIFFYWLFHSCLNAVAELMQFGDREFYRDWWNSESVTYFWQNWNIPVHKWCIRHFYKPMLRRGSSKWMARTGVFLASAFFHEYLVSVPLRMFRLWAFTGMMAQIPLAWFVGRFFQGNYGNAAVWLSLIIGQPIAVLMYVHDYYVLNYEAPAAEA
Nature of the data set: Inhibition of human DGAT1 in serum starved HEK293 cells assessed as inhibition of triglyceride synthesis incubated for 20 mins followed by 13C-addition of 13C-oleic acid pre-complexed with BSA for 120 mins by LC-MS-based mass spectrophotometric analysis. The format is cell-based.

CYP3A4, sequence (P08684 whole entry): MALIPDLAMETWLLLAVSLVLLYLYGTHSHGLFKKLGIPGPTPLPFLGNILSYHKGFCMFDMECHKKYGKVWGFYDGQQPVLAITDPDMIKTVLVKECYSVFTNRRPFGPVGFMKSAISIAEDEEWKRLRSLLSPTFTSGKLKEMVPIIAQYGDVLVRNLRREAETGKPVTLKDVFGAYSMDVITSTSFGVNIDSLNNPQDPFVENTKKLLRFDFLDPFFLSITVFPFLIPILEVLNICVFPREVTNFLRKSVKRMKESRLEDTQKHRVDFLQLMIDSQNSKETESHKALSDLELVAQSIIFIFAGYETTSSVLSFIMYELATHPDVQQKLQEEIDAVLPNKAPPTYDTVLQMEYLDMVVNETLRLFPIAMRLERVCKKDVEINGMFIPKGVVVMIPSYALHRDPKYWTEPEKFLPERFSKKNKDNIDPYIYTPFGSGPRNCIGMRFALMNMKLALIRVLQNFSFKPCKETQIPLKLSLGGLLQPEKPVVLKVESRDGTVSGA
CYP2D6, sequence (P10635 whole entry): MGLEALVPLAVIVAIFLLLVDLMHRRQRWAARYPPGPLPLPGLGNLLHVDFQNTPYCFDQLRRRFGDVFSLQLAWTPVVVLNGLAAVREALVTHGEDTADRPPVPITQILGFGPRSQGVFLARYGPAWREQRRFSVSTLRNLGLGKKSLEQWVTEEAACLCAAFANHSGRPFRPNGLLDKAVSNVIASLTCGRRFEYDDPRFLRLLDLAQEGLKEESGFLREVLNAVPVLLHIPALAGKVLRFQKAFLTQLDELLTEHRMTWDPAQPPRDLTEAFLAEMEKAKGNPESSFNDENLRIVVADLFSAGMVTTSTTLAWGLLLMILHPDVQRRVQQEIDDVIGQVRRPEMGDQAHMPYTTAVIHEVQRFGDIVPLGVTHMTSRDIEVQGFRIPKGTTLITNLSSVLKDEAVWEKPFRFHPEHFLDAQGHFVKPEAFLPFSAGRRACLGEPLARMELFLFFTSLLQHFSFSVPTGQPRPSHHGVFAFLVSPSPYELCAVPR

The term inhibition denotes the share of the control response that was lost under treatment. As usually defined, the solubility is how much of the substance goes into solution per volume. Low values mean little dissolved substance, high ones much dissolved substance. As for `O=C([O-])CC1CCC2(CC1)CCC(c1ccc(NC(=O)c3nnc(Nc4ccc(F)c(F)c4)o3)cn1)CC2.[Na+]` (stereo unspecified), the inhibition at 25 µM on CYP1A2 worked out at 13%; on CYP3A4 it was 17%; at CYP2D6, 5%. Further, the solubility at 4 h in data set [1] is less than 6 µM; in data set [2], less than 6 µM; in data set [3], less than 6 µM; in data set [4], 9 µM.
As for `O=C([O-])CC1CCC2(CC1)CCC(c1ccc(NC(=O)c3nnc(Nc4ccc(F)c(F)c4)o3)cc1)CC2.[Na+]` (stereo unspecified), the inhibition at 25 µM was found to be 5% on CYP1A2, 5% at CYP3A4 and 8% on CYP2D6. Also, the solubility at 4 h in data set [1] was 28 µM; in data set [2], 263 µM; in data set [3] it was 14 µM; in data set [4] it was 17 µM.
By IC50 is commonly meant the concentration needed to halve the response being measured. Turning to `O=C(O)C[C@H]1CC[C@H](c2ccc(-c3ccc(Nc4ccc(C(F)(F)F)nc4)cn3)cc2)CC1` [PRADIGASTAT], in data set [5], the IC50 was determined as 66 nM.
`O=C(Nc1ccc(N2CCC3(CC2)CC(C(=O)[O-])C3)nc1)c1nnc(Nc2ccc(F)c(F)c2)o1.[Na+]`: the inhibition at 25 µM at CYP1A2 is 12%; on CYP3A4 it was 10%. Besides, the solubility at 4 h in data set [1] amounted to 179 µM; in data set [2], 36 µM; in data set [3] it was 1060 µM; in data set [4], 723 µM.
